Source: patent US20070060591A1, “Chemokine receptor binding heterocyclic compounds” (priority 1999, published 2007)
≈ marks a conversion by molar mass, not a printed value. Like-named read-outs stand apart in the source and are kept apart here. Blank lines part the entries; values can stand above or below the compound they belong to.

Tests used:
[1] = from CCOP(=O)(OCC)N(CCCCCCCNC(=O)CBr)CCNS(=O)(=O)c1ccccc1[N+](=O)[O-]; amine bond; K2CO3; acetonitrile; 0.6 mM; 60.0 °C; 24.0 h
[2] = crosslinker bond, 14-membered ring, Cs2CO3, DMF
[3] = tested on: DBA/1 IFN-γ RKO mice
Protocol: The control group consisted of ten mice that were injected with collagen as discussed below.
The experiments were performed in 8- to 12-week old mice, but in each experiment, the mutant and wild-type mice were age-matched with a 5 day limit. The male to female ratio was kept between 0.8 and 1.3 in each experimental group.
Native chicken collagen type II (EPC, Owensvillle, Mo.) was dissolved in 0.05 M acetic acid at 2 mg/ml by stirring overnight at 6° C., and emulsified in an equal volume of incomplete (IFA) or complete Freund's adjuvant (CFA) containing 1.5 mg/ml heat killed Mycobacterium butyricum (Difco, Detroit, Mich.). Mice were sensitized with a single 100 μl intradermal injection of the emulsion at the base of the tail. Mice were examined daily for signs of arthritis. The disease severity was recorded following a scoring system for each limb. Score 0: normal; score 1: redness and/or swelling in one joint; score 2: redness and/or swelling in more than one joint; score 3: redness and/or welling in the entire paw; score 4: deformity and/or ankylosis.

[4] = tested on: HIV-1 BaL; experiment: Inhibition of infection of U87.CD4.CCR5 by HIV-1 BaL; assay type: cell-based; conditions: U87.CD4.CCR5 cells
[5] = tested on: HIV-1 (HTLV-IIIB); experiment: microbe, parasite or virus in culture; assay type: cell-based; conditions: MT-4 cells
Protocol: (§1) The compounds of the invention were tested in a screen by the MTT method (J. Virol. Methods […] (1988)). MT-4 cells (2.5×10^4/well) were challenged with HIV-1 (HTLV-IIIB) or HIV-2 (LAV-2 ROD) at a concentration of 100 CCID50 and incubated in the presence of various concentrations of the test compounds, which were added immediately after challenge with the virus. After 5 days culture at 37° C. in a CO2 incubator, the number of viable cells was assessed by the MTT (tetrazolium) method. […] The potential therapeutic usefulness was assessed by calculating a Selectivity Index (SI) corresponding to the ratio of CC50 to EC50.

[6] = in vitro; assay type: cell-based; conditions: human
Protocol: as §1

[7] = biological target: T1, CXCR-4 (Homo sapiens, UniProt P61073); experiment: Inhibition of signal transduction (Ca2+ flux) induced by SDF-1α binding to CXCR-4 on SUP-T1 cells; assay type: cell-based; conditions: SDF-1α induced; for inhibition at 1 µg/mL: 1 μg/ml, read-out: % Inhibition of Ca2+ flux (conc)
T1 construct: endogenous in cells; host or cells: SUP-T1 cells

[8] = tested on: HIV-2 (LAV-2 ROD); experiment: Anti-HIV-2 screen by the MTT method in MT-4 cells; assay type: cell-based; conditions: 100 CCID50, 5 days
Protocol: as §1

[9] = biological target: T1, CXCR-4; experiment: Inhibition of mAb 12G5 binding to CXCR-4 in SUP-T1 cells
[10] = tested on: MT-4 cells; experiment: in vitro; assay type: cell-based
Protocol: as §1

T1 sequence (P61073 whole entry): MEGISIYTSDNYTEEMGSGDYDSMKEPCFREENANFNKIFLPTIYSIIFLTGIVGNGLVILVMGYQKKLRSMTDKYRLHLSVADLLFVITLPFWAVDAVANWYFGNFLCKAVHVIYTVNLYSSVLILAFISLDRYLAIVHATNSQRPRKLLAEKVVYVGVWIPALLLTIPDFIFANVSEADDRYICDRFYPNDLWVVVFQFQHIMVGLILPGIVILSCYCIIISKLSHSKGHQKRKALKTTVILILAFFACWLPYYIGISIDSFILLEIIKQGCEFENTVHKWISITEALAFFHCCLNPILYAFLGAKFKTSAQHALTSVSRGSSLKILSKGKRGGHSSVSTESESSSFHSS

Compound: CCOP(=O)(OCC)N1CCCCCCCNC(=O)CN(S(=O)(=O)c2ccccc2[N+](=O)[O-])CC1
ring closure, yield of all isomers [1]: 90%

Compound: CCOP(=O)(OCC)N1CCN(S(=O)(=O)c2ccccc2[N+](=O)[O-])CCCC(F)(F)CCCN(S(=O)(=O)c2ccccc2[N+](=O)[O-])CC1
ring closure, isolated yield ([2]; from bis-[2-(2-nitrobenzenesulfonylamino)-ethyl]-phosphoramidic acid diethyl ester + 1,7-bis(toluene-4-sulfonic acid)-4,4-difluoro-heptyl-ester, 15.4 mM, 85.0 °C): 19%

Compound: CCOP(=O)(OCC)N1CCN(S(=O)(=O)c2ccccc2[N+](=O)[O-])CCCC(F)CCCN(S(=O)(=O)c2ccccc2[N+](=O)[O-])CC1
ring closure, isolated yield ([2]; from bis-[2-(2-nitro-benzenesulfonylamino)-ethyl]-phosphoramidic acid diethyl ester + 1,7-bis(toluene-4-sulfonic acid)-4-fluoro-heptyl-ester, 15.9 mM, 85.0 °C): 55%

Compound: c1cc(CN2CCCNCCNCCCNCC2)ccc1CN1CCCNCCNCCCNCC1 [AMD3100]
animals demonstrating arthritis ([3]; 14 days after treatment, i.v. osmotic pump, 5 mg/ml over 14 days, control 7 of ten): 1 of the 8
body weight loss of treated animals compared with control animals ([3]; collagen-injected mice): did not demonstrate any significant body weight loss
time until the single treated animal developed arthritic pathology ([3]; post-treatment): > 20 days
IC50 ([4]; Human immunodeficiency virus 1, BAL, read-out: IC50 against infection of U87.CD4.CCR5 by HIV-1 BaL): > 100 µg/mL

Compound: Clc1cc(CN2CCCNCCNCCCNCC2)cc(Cl)n1 [AMD3451, 1-[2,6-Dichloropyrid-4-yl(methylene)]-1,4,8,11-tetraazacyclotetradecane]
IC50 against infection of U87.CD4.CCR5 by HIV-1 BaL [4]: 8.9 µg/mL

Compound: c1ccc(CNCc2ccc(CN3CCCNCCNCCCNCC3)cc2)nc1 [AMD3465, N-[1,4,8,11-Tetraazacyclotetradecanyl-1,4-phenylenebis(methylene)]-2-(amino-methyl)pyridine]
SI HIV-1 (Selectivity Index, ratio of CC50 to EC50) ([5]; HIV-1 (IIIB)): 3 × 10^4
EC50 ([5]; Human immunodeficiency virus 1, IIIB, MT4, 120 h, 100 CCID50, 5 days, MTT): 0.008 µg/mL (≈ 0.0195 µM)
CC50 at 5 days [6]: > 250 µg/mL
IC50 [7]: 2.44 nM
EC50 ([8]; Human immunodeficiency virus 2, MT4, 120 h): 0.032 µg/mL (≈ 0.0779 µM)
IC50 [9]: 7.31 nM

Compound: c1ncc2ncn(Cc3ccc(CN4CCCNCCNCCCNCC4)cc3)c2n1 [AMD3472, N-[1,4,8,11-Tetraazacyclotetradecanyl-1,4-phenylenebis(methylene)]-purine]
IC50 against infection of U87.CD4.CCR5 by HIV-1 BaL [4]: 45.4 µg/mL

Compound: c1ccc(CCNCc2ccc(CN3CCCNCCNCCCNCC3)cc2)nc1 [AMD3497, N-[1,4,8,11-Tetraazacyclotetradecanyl-1,4-phenylenebis(methylene)]-2-(amino-ethyl)pyridine]
EC50 HIV-1 (IIIB) ([5]; 100 CCID50, 5 days, MTT): 1.8 µg/mL (≈ 4.24 µM)
CC50 [10]: >250 µg/mL
EC50 HIV-2 [8]: 3.8 µg/mL (≈ 8.95 µM)

Compound: c1ccc(N2CCN(Cc3ccc(CN4CCCNCCNCCCNCC4)cc3)CC2)cc1 [AMD3526, 1-[1,4,8,11-Tetraazacyclotetradecanyl-1,4-phenylenebis(methylene)]-4-phenylpiperazine]
IC50 against infection of U87.CD4.CCR5 by HIV-1 BaL [4]: 82 µg/mL

Compound: c1ccc(CNCc2ccc(CN3CCCNCCNCCCNCC3)cc2)cc1 [AMD3529, N-[1,4,8,11-Tetraazacyclotetradecanyl-1,4-phenylenebis(methylene)]-benzylamine]
EC50 HIV-1 (IIIB) ([5]; 100 CCID50, 5 days, MTT): 0.4 µg/mL (≈ 0.977 µM)
CC50 [10]: 130 µg/mL (≈ 317 µM)
EC50 HIV-2 [8]: 2.6 µg/mL (≈ 6.35 µM)

Compound: SCCNCc1ccc(CN2CCCNCCNCCCNCC2)cc1 [AMD3530, N-[1,4,8,11-Tetraazacyclotetradecanyl-1,4-phenylenebis(methylene)]-2-(amino-ethyl)mercaptan]
EC50 HIV-1 (IIIB) ([5]; 100 CCID50, 5 days, MTT): 0.5 µg/mL (≈ 1.32 µM)
CC50 [10]: 175 µg/mL (≈ 461 µM)
EC50 HIV-2 [8]: 2.0 µg/mL (≈ 5.27 µM)

Compound: Nc1ccc(CNCc2ccc(CN3CCCNCCNCCCNCC3)cc2)cc1 [AMD3544, N-[1,4,8,11-Tetraazacyclotetradecanyl-1,4-Ihenylenebis(methylene)]-4-amino-benzylamine]
EC50 HIV-1 (IIIB) ([5]; 100 CCID50, 5 days, MTT): 0.7 µg/mL (≈ 1.65 µM)
CC50 [10]: 222 µg/mL (≈ 523 µM)
EC50 HIV-2 [8]: 3.7 µg/mL (≈ 8.71 µM)

Compound: c1ccc(CNCc2ccc(CN3CCNCCCCCCCNCC3)cc2)nc1 [AMD7049, N-[4-(1,4,7-Triazacyclotetra-decanyl)-1,4-phenylenebis(methylene)]-2-(aminomethyl)pyridine]
inhibition at 1 µg/mL [7]: 100%
IC50 [9]: 127 nM

Compound: c1ccc(CNCc2ccc(CN3CCNCCc4cccc(n4)CCNCC3)cc2)nc1 [AMD7050, N-[7-(4,7,10,17-Tetraazabicyclo[13.3.1]heptadeca-1(17),13,15-trienyl)-1,4-phenylenebis(methylene)]-2-(aminomethyl)pyridine]
inhibition at 1 µg/mL [7]: 100%
IC50 [9]: 2.25 nM

Compound: c1ccc(CNCc2ccc(CN3CCCCCCCNCCNCC3)cc2)nc1 [AMD7059, N-[1-(1,4,7-Triazacyclotetra-decanyl)-1,4-phenylenebis(methylene)]-2-(aminomethyl)pyridine]
inhibition at 1 µg/mL [7]: 36%
IC50 [9]: > 2440 nM

Compound: SDF-1α
Inhibition of mAb 12G5 binding IC50 [9]: 0.27 µg/mL

Compound: bis(3-nitrobenzenesulfonylaminopropyl)ether + Methanesulfonic acid, 5-methanesulfonyloxy-3-(4-{[( [...]
ring closure, isolated yield ([2]; the molecule shown is the open-chain precursor, 6.3 mM, 80.0 °C): 51%

Compound: bis(3-nitrobenzenesulfonylaminopropyl)ether? + N-(diethoxyphosphoryl)-O,O′-bis(2-methylsulfonyl)diethanolamine
ring closure, isolated yield ([2]; the molecule shown is the open-chain precursor, 18.0 mM, 80.0 °C): 55%

The next lines start with results.

IC50 against infection of U87.CD4.CCR5 by HIV-1 BaL [4]: 32.3 µg/mL
Compound: Clc1ccc(CN2CCCNCCNCCCNCC2)cn1 [AMD3454, 1-[2-Chloropyrid-5-yl(methylene)]-1,4,8,11-tetraazacyclotetradecane]

EC50 HIV-1 (IIIB) ([5]; 100 CCID50, 5 days, MTT): 0.2 µg/mL (≈ 0.47 µM)
EC50 HIV-2 [8]: 7.1 µg/mL (≈ 16.7 µM)
Compound: Cc1cnc(CNCc2ccc(CN3CCCNCCNCCCNCC3)cc2)cn1 [AMD3498, N-[1,4,8,11-Tetraazacyclotetradecanyl-1,4-phenylenebis(methylene)]-(2-amino-methyl-5-methyl)pyrazine]
CC50 [10]: >250 µg/mL

EC50 HIV-1 (IIIB) ([5]; 100 CCID50, 5 days, MTT): 0.6 µg/mL (≈ 1.46 µM)
EC50 HIV-2 [8]: 10.3 µg/mL (≈ 25.1 µM)
Compound: c1cc(CNCc2ccc(CN3CCCNCCNCCCNCC3)cc2)ccn1 [AMD3500]
CC50 [10]: >250 µg/mL

EC50 HIV-1 (IIIB) ([5]; 100 CCID50, 5 days, MTT): 0.7 µg/mL (≈ 1.68 µM)
EC50 HIV-2 [8]: 9.8 µg/mL (≈ 23.6 µM)
Compound: c1csc(CNCc2ccc(CN3CCCNCCNCCCNCC3)cc2)c1 [AMD3516, N-[1,4,8,11-Tetraazacyclotetradecanyl-1,4-phenylenebis(methylene)]-2-(amino-methyl)thiophene]
CC50 [10]: 158 µg/mL (≈ 380 µM)

EC50 HIV-1 (IIIB) ([5]; 100 CCID50, 5 days, MTT): 0.8 µg/mL (≈ 1.88 µM)
EC50 HIV-2 [8]: 10.6 µg/mL (≈ 25 µM)
Compound: Nc1ccccc1CNCc1ccc(CN2CCCNCCNCCCNCC2)cc1 [AMD3517, N-[1,4,8,11-Tetraazacyclotetradecanyl-1,4-phenylenebis(methylene)]-2-amino-benzylamine]
CC50 [10]: 153 µg/mL (≈ 360 µM)

EC50 HIV-1 (IIIB) ([5]; 100 CCID50, 5 days, MTT): 0.1 µg/mL (≈ 0.235 µM)
EC50 HIV-2 [8]: 6.7 µg/mL (≈ 15.8 µM)
Compound: CN(Cc1ccc(CN2CCCNCCNCCCNCC2)cc1)Cc1ccccn1 [AMD3538, N-[1,4,8,11-Tetraazacyclotetradecanyl-1,4-phenylenebis(methylene)]-N-methyl-2-(aminomethyl)pyridine]
CC50 [10]: 209 µg/mL (≈ 492 µM)

EC50 HIV-1 (IIIB) ([5]; 100 CCID50, 5 days, MTT): 0.2 µg/mL (≈ 0.484 µM)
EC50 HIV-2 [8]: 1.0 µg/mL (≈ 2.42 µM)
Compound: c1nc(CCNCc2ccc(CN3CCCNCCNCCCNCC3)cc2)c[nH]1 [AMD3543, N-[1,4,8,11-Tetraazacyclotetradecanyl-1,4-phenylenebis(methylene)]-4-(amino-ethyl)imidazole]
CC50 [10]: 239 µg/mL (≈ 578 µM)

inhibition at 1 µg/mL [7]: 100%
IC50 [9]: 15.8 nM
Compound: c1ccc(CNCc2ccc(CN3CCNCCc4cccc(c4)CCNCC3)cc2)nc1 [AMD7051, N-[7-(4,7,10-Triazabicyclo[13.3.1]heptadeca-1(17),13,15-trienyl)-1,4-phenylenebis(methylene)]-2-(aminomethyl)pyridine]

inhibition at 1 µg/mL [7]: 44%
IC50 [9]: > 2250 nM
Compound: c1ccc(CNCc2ccc(CN3CCNCCNCCc4cccc(c4)CC3)cc2)nc1 [AMD7058, N-[4-[4,7,10-Triazabicyclo[13.3.1]heptadeca-1(17),13,15-trienyl]-1,4-phenylenebis(methylene)]-2-(aminomethyl)pyridine]

inhibition at 1 µg/mL [7]: 100%
IC50 [9]: 20.2 nM
Compound: c1ccc(CNCc2ccc(CN3CCNCCNCCc4cccc(n4)CC3)cc2)nc1 [AMD7063, N-[4-[4,7,10,17-Tetraazabicyclo[13.3.1]heptadeca-1(17),13,15-trienyl]-1,4-phenylenebis(methylene)]-2-(aminomethyl)pyridine]
